Results from patent US8691753B2 (priority 2009, dated 2014).
Where two headings read alike, the source gives them in different places.

Tests used:
Assay type in all cases: biochemical
[1] = molecular target: MMP-2h (Homo sapiens (Human), UniProt P08253); assay: Inhibition constant (Ki) on MMP-2h; conditions: human MMP-2
Excerpt: (§1) The inhibition constant Ki of these compounds has been determined according to the protocol described by Devel et al, 2006, J. Biol. Chem. (7).
(§2) In this table I and also in table II below, “h” corresponds to human. All of the compounds have therefore been evaluated on human MMPs.

[2] = molecular target: MMP-14h (Homo sapiens (Human), UniProt P50281); assay: Inhibition constant (Ki) on MMP-14h; conditions: human MMP-14
Excerpt: as §1, §2

[3] = molecular target: MMP-10h (Homo sapiens (Human), UniProt P09238); assay: Inhibition constant (Ki) on MMP-10h; conditions: human MMP-10
MMP-10h, sequence (P09238 99-476): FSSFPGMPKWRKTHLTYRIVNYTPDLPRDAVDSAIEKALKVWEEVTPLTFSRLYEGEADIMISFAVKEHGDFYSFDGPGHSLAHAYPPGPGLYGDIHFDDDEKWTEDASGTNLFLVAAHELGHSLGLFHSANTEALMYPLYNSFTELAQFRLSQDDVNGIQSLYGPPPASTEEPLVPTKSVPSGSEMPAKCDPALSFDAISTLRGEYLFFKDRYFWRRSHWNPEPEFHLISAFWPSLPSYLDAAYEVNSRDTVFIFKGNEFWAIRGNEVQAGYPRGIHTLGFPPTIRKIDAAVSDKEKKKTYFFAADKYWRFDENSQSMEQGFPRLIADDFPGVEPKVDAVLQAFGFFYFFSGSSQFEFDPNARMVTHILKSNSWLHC

[4] = molecular target: MMP-9h (Homo sapiens (Human), UniProt P14780); assay: Inhibition constant (Ki) on MMP-9h; conditions: human MMP-9
MMP-9h, sequence (P14780 94-707): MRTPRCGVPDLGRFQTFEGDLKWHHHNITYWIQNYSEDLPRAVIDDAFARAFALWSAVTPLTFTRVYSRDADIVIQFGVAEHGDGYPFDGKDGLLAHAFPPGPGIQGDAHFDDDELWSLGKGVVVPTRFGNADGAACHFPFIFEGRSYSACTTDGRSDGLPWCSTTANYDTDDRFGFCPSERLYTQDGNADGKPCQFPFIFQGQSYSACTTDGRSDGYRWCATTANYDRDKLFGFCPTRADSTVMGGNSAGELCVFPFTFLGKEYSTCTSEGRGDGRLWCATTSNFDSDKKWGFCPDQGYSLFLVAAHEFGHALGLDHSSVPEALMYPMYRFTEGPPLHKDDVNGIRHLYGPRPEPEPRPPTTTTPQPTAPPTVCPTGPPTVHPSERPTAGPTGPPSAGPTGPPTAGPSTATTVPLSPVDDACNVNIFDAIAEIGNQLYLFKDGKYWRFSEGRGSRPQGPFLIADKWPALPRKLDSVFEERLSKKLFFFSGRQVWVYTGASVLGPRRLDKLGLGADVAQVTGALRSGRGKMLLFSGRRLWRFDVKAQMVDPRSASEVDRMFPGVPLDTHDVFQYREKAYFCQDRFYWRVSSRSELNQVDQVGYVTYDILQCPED
Excerpt: as §1, §2

[5] = molecular target: MMP-12h (Homo sapiens (Human), UniProt P39900); assay: Inhibition constant (Ki) on MMP-12h; conditions: human MMP-12
MMP-12h, sequence (P39900 106-470): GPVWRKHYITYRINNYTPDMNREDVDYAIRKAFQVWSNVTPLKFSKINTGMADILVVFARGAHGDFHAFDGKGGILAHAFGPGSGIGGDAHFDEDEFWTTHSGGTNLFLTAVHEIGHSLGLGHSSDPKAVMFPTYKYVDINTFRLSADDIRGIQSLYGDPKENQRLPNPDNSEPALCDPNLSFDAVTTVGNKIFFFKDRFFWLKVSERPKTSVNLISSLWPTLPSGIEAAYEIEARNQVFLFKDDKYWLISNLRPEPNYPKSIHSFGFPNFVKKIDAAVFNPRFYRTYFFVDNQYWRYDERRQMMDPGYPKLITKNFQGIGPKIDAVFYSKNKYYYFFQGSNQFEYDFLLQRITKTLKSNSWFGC

[6] = molecular target: MMP-3h (Homo sapiens (Human), UniProt P08254); assay: Inhibition constant (Ki) on MMP-3h; conditions: human MMP-3
MMP-3h, sequence (P08254 100-477): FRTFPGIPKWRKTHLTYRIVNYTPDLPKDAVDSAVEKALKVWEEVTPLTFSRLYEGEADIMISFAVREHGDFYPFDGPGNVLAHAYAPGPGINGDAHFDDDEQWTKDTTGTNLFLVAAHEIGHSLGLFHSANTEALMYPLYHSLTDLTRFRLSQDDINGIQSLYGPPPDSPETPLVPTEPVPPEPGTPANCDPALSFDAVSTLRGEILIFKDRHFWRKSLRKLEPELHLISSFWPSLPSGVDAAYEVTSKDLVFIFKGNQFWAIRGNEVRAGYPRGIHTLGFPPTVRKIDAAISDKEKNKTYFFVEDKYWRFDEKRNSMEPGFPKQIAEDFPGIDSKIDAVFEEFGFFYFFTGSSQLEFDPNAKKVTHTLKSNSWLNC
Excerpt: as §1, §2

[7] = molecular target: MMP-8h (Homo sapiens (Human), UniProt P22894); assay: Inhibition constant (Ki) on MMP-8h; conditions: human MMP-8
MMP-8h, sequence (P22894 101-467): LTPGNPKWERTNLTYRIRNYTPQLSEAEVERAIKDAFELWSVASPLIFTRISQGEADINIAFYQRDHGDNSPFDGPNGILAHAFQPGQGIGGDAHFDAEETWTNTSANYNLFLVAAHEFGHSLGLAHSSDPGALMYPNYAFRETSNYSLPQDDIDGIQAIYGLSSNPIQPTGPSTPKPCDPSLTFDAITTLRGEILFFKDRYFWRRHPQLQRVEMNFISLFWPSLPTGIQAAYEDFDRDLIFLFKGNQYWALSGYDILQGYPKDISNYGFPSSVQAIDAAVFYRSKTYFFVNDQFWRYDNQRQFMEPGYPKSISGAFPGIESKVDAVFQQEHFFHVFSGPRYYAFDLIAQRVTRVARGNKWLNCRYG

[8] = molecular target: MMP-13h (Homo sapiens (Human), UniProt P45452); assay: Inhibition constant (Ki) on MMP-13h; conditions: human MMP-13
Excerpt: as §1, §2

MMP-2h, sequence (P08253 110-660): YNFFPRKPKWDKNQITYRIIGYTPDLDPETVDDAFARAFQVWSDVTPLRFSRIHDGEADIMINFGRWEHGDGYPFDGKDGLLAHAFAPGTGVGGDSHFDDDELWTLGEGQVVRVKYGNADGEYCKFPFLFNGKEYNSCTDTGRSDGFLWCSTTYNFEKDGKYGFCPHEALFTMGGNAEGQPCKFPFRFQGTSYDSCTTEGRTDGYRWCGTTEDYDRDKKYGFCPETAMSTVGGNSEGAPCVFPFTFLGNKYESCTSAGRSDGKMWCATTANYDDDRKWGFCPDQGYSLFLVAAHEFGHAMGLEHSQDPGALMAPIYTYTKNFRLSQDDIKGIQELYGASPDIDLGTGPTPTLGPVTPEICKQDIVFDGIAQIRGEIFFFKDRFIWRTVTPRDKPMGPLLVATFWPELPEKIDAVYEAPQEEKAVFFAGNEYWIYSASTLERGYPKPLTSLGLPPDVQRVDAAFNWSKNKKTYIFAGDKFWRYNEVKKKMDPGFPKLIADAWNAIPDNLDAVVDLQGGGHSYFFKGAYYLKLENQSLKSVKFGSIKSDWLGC

| SMILES | Ki ([1]; read-out: Ki MMP-2h) | Ki ([2]; read-out: Ki MMP-14h) | Ki ([3]; read-out: Ki MMP-10h) | Ki ([4]; read-out: Ki MMP-9h) | Ki ([5]; read-out: Ki MMP-12h) | Ki ([6]; read-out: Ki MMP-3h) | Ki ([7]; read-out: Ki MMP-8h) | Ki ([8]; read-out: Ki MMP-13h) | Ki [1] | Ki [2] | Ki [3] | Ki [4] | Ki [5] | Ki [6] | Ki [7] | Ki [8] |
| --- | --- | --- | --- | --- | --- | --- | --- | --- | --- | --- | --- | --- | --- | --- | --- | --- |
| NC(=O)[C@H](CCC(=O)O)NC(=O)CCc1cc(-c2ccccc2)no1 [Compound 15, (S)-5-amino-5-oxo-4-(3-(3-phenylisoxazol-5-yl)propanamido)pentanoic acid] | 762 nM | > 1000 nM | > 5000 nM | > 1000 nM | 398 nM | > 10000 nM | 114 nM | > 1000 nM | – | – | – | – | – | – | – | – |
| NC(=O)[C@H](CCC(=O)O)NC(=O)[C@H](CCC(=O)O)NC(=O)CCc1ccc(-c2csnn2)cc1 [Compound 35, (S)-4-(3-(4-(1,2,3-thiadiazol-4-yl)phenyl)propanamido)-5-((S)-1-amino-4-carboxy-1-oxobutan-2-ylamino)-5-oxopentanoic acid] | – | – | – | – | – | – | – | – | 442 nM | 438 nM | 679 nM | 199 nM | 158 nM | 281 nM | 231 nM | 212 nM |
| NC(=O)[C@@H](CCC(=O)O)NC(=O)[C@@H](CCC(=O)O)NC(=O)CCc1cc(-c2ccc(-c3cccc(Cl)c3)cc2)no1 [Compound 7, (R)-5-amino-4-((R)-4-carboxy-2-(3-(3-(3′-chlorobiphenyl-4-yl)isoxazol-5-yl)propanamido)butanamido)-5-oxopentanoic acid] | 538 nM | > 10000 nM | 111 nM | > 5000 nM | 268 nM | 897 nM | > 1000 nM | 114 nM | – | – | – | – | – | – | – | – |
| NC(=O)[C@H](Cc1c[nH]cn1)NC(=O)[C@H](CCC(=O)O)NC(=O)CCc1ccc(-c2ccc(-c3ccccc3)cc2)cc1 [Compound 67, (S)-5-((S)-1-amino-3-(1H-imidazol-4-yl)-1-oxopropan-2-ylamino)-4-(3-(4′-phenylbiphenyl-4-yl)propanamido)-5-oxopentanoic acid] | 68 nM | > 1000 nM | 168 nM | > 1000 nM | 10.2 nM | 337 nM | 526 nM | 36 nM | – | – | – | – | – | – | – | – |
| NC(=O)[C@H](CCCC(=O)O)NC(=O)[C@H](CCCC(=O)O)NC(=O)CCc1cc(-c2ccc(-c3cccc(Cl)c3)cc2)no1 [Compound 13, (S)-6-amino-5-((S)-5-carboxy-2-(3-(3-(3′-chlorobiphenyl-4-yl)isoxazol-5-yl)propanamido)pentanamido)-6-oxohexanoïque] | – | – | – | – | – | – | – | – | > 1000 nM | 553 nM | > 5000 nM | 605 nM | 348 nM | 575 nM | 638 nM | 91 nM |
| O=C(O)CC[C@H](NC(=O)CCc1ccc(-c2ccccc2)cc1)C(=O)N1CCC[C@@H](CC(=O)O)C1 [Compound 51, (S)-4-(3-(biphenyl-4-yl)propanamido)-5-((S)-3-(carboxymethyl)piperidin-1-yl)-5-oxopentanoic acid] | > 1000 nM | > 5000 nM | > 10000 nM | > 1000 nM | 259 nM | > 10000 nM | 929 nM | > 1000 nM | – | – | – | – | – | – | – | – |
| Cc1nc(-c2ccc(CCC(=O)N[C@@H](CCC(=O)O)C(=O)N[C@@H](CCC(=O)O)C(N)=O)cc2)no1 [Compound 34, (S)-5-amino-4-((S)-4-carboxy-2-(3-(4-(5-methyl-1,2,4-oxadiazol-3-yl)phenyl)propanamido)butanamido)-5-oxopentanoic acid] | > 5000 nM | > 1000 nM | > 1000 nM | > 5000 nM | 887 nM | > 1000 nM | > 1000 nM | > 1000 nM | – | – | – | – | – | – | – | – |
| NC(=O)[C@H](CCC(=O)O)NC(=O)[C@H](CCC(=O)O)NC(=O)CCc1ccc(-c2cccc(C(=O)O)c2)cc1 [Compound 56, 4′-(3-((S)-1-((S)-1-amino-4-carboxy-1-oxobutan-2-ylamino)-4-carboxy-1-oxobutan-2-ylamino)-3-oxopropyl)biphenyl-3-carboxylic acid] | > 5000 nM | > 10000 nM | > 10000 nM | > 1000 nM | 91 nM | > 10000 nM | > 1000 nM | > 5000 nM | – | – | – | – | – | – | – | – |
| NC(=O)[C@H](CCC(=O)O)NC(=O)[C@H](CCC(=O)O)NC(=O)CCc1ccc(I)cc1 [Compound 31, (S)-5-amino-4-((S)-4-carboxy-2-(3-(4-iodophenyl)propanamido)butanamido)-5-oxopentanoic acid] | > 1000 nM | > 1000 nM | > 1000 nM | > 1000 nM | 155 nM | > 5000 nM | 839 nM | > 1000 nM | – | – | – | – | – | – | – | – |
| C[C@H](NC(=O)[C@H](CCC(=O)O)NC(=O)CCc1ccc(-c2ccc(-c3ccccc3)cc2)cc1)C(N)=O [Compound 66, (S)-5-((S)-1-amino-1-oxopropan-2-ylamino)-4-(3-(4′-phenylbiphenyl-4-yl)propanamido)-5-oxopentanoic acid] | 49 nM | > 10000 nM | 130 nM | > 10000 nM | 2.2 nM | 238 nM | 532 nM | 16.4 nM | – | – | – | – | – | – | – | – |
| C[C@H](NC(=O)[C@H](CCC(=O)O)NC(=O)CCc1ccc(-c2cccs2)cc1)C(N)=O [Compound 85, (S)-5-((S)-1-amino-1-oxopropan-2-ylamino)-5-oxo-4-(3-(4-(thiophen-2-yl)phenyl)propanamido)pentanoic acid] | 348 nM | > 1000 nM | 835 nM | > 5000 nM | 25.6 nM | > 10000 nM | 62 nM | > 1000 nM | – | – | – | – | – | – | – | – |
| O=C(O)CC[C@H](NC(=O)CCc1ccc(-c2cccs2)cc1)C(=O)N1CCC[C@@H](CC(=O)O)C1 [Compound 89, (S)-5-((S)-3-(carboxymethyl)piperidin-1-yl)-5-oxo-4-(3-(4-(thiophen-2-yl)phenyl)propanamido)pentanoic acid] | 484 nM | > 1000 nM | > 5000 nM | > 1000 nM | 124 nM | > 100000 nM | 94 nM | > 1000 nM | – | – | – | – | – | – | – | – |
| NC(=O)[C@H](CCC(=O)O)NC(=O)[C@H](CCC(=O)O)NC(=O)CCc1ccc(-c2nc3ccccc3s2)cc1 [Compound 39, (S)-5-amino-4-((S)-2-(3-(4-(benzo[d]thiazol-2-yl)phenyl)propanamido)-4-carboxybutanamido)-5-oxopentanoic acid] | – | – | – | – | – | – | – | – | 151 nM | 547 nM | 99 nM | 618 nM | 2.2 nM | 88 nM | 146 nM | 134 nM |
| NCCCC[C@H](NC(=O)CCc1ccc(-c2ccc(-c3ccccc3)cc2)cc1)C(=O)N[C@@H](CCC(=O)O)C(N)=O [Compound 73, (S)-5-amino-4-((S)-6-amino-2-(3-(4′-phenylbiphenyl-4-yl)propanamido)hexanamido)-5-oxopentanoic acid] | 541 nM | > 10000 nM | > 1000 nM | > 10000 nM | 254 nM | 300 nM | > 1000 nM | 97 nM | – | – | – | – | – | – | – | – |
| NC(=O)CC[C@H](NC(=O)[C@H](CCC(=O)O)NC(=O)CCc1cc(-c2ccc(-c3ccccc3)cc2)no1)C(N)=O [Compound 21, (S)-4-(3-(3-(biphenyl-4-yl)isoxazol-5-yl)propanamido)-5-((S)-1,5-diamino-1,5-dioxopentan-2-ylamino)-5-oxopentanoic acid] | 39.3 nM | > 1000 nM | 256 nM | > 1000 nM | 5.4 nM | 105 nM | 261 nM | 49 nM | – | – | – | – | – | – | – | – |
